Consider 25 compounds from patent US10420772B2, “Animal and human anti-trypanosomonal and anti-leishmania agents” (Celgene Corporation, priority 2016, dated 2019).

In assay [1] the test system is IL3000 T. congolense (drug sensitive) strain. Nature of the assay: In vitro Alamar Blue 72 hrs drug sensitivity assay for T. congolense. The following applies: Trypanosoma congolense, IL3000 T. congolense bloodstream form, read-out: T. congo Act. In kind it is cell-based. The procedure: In Vitro Alamar Blue 72 Hrs Drug Sensitivity Assay for T. Congolense. Compounds were tested in vitro for chemotherapeutic efficacy against the IL3000 T. congolense (drug sensitive) strain using an Alamar Blue assay. Test compounds were prepared as 10 mg/mL DMSO stocks for each assay run. Compounds were assayed in at least three separate, independent test runs and an 11-point dilution curve was used to determine the IC50 values. Bloodstream form trypanosomes were supported in HMI media containing 20% bovine serum and were incubated with test compounds for 69 hrs at 34° C. in a humidified atmosphere containing 5% CO2. Thereafter, 10 μL of Resazurin dye (12.5 mg in 100 mL of phosphate buffered saline, Sigma-Aldrich, Buchs, Switzerland) were added for an additional 3 hrs. Plates were then read using a fluorescent plate reader (Spectramax, Gemini XS, Bucher Biotec, Basel, Switzerland) using an excitation wavelength of 536 nm and an emission wavelength of 588 nm. Data points were averaged to generate sigmoidal dose-response curves and IC50 values were determined using Softmax Pro 5.2 software.

The test system of assay [2] is STIB 719/ILRAD 560 T. vivax (drug sensitive) strain. The assay can be described thus: Ex vivo Alamar Blue 48 hrs drug sensitivity assay for T. vivax. In kind it is cell-based. Particulars: Trypanosoma vivax, STIB719; STIB 719/ILRAD 560 T. vivax bloodstream form, ex vivo, Alamar Blue, 48 hrs; read-out: T. vivax Act. As to the method: Ex vivo Alamar Blue48 hrs drug sensitivity assay for T. vivax. Compounds were tested ex vivo for chemotherapeutic efficacy against the STIB 719/ILRAD 560 T. vivax (drug sensitive) strain, using an Alamar Blue assay. Test compounds were prepared as 10 mg/mL DMSO stocks for each assay run. Compounds were assayed in at least three separate, independent test runs and an 11-point dilution curve was used to determine the IC50 values. Bloodstream form trypanosomes were propagated and harvested from a highly parasitaemic mouse (via cardiac puncture) and were incubated with test compounds for 45 hrs at 37° C. in a humidified atmosphere containing 5% CO2, supported in HMI media containing 20% bovine serum. Thereafter, 10 μL of Resazurin dye (12.5 mg in 100 mL of phosphate buffered saline, Sigma-Aldrich, Buchs, Switzerland) were added for an additional 3 hrs. Plates were then read using a fluorescent plate reader (Spectramax, Gemini XS, Bucher Biotec, Basel, Switzerland) using an excitation wavelength of 536 nm and an emission wavelength of 588 nm. Data points were averaged to generate sigmoidal dose-response curves and IC50 values were determined using Softmax Pro 5.2 software.

Take `CC1(Nc2ncc3nc(Nc4cccc(Cl)c4)n([C@H]4CC[C@H](CO)CC4)c3n2)CCOCC1` [A-26, ((1r,4r)-4-(8-(3-chlorophenylamino)-2-(4-methyltetrahydro-2H-pyran-4-ylamino)-9H-purin-9-yl)cyclohexyl)methanol]: the IC50 in assay [1] was 150 to 350 nM; in assay [2], below 150 nM.
For `CC1(Nc2ncc3nc(Nc4cccc(Cl)c4)n([C@H]4CC[C@@H](N)CC4)c3n2)CCOCC1` [A-27, 9-((1s,4s)-4-aminocyclohexyl)-N8-(3-chlorophenyl)-N2-(4-methyltetrahydro-2H-pyran-4-yl)-9H-purine-2,8-diamine], in that order: below 150 nM and below 150 nM.
As to `CC(C)(C)Nc1ncc2nc(Nc3cccc(C(F)(F)F)c3)n([C@H]3CC[C@@H](N)CC3)c2n1` [A-29, 9-((1s,4s)-4-aminocyclohexyl)-N2-tert-butyl-N8-(3-(trifluoromethyl)phenyl)-9H-purine-2,8-diamine], the IC50 in assay [1] and in assay [2] was below 150 nM throughout.
Take `CC(C)(C)Nc1ncc2nc(Nc3cccc(C(F)(F)F)c3)n([C@H]3CC[C@H](N)CC3)c2n1` [A-30, 9-((1r,4r)-4-aminocyclohexyl)-N2-tert-butyl-N8-(3-(trifluoromethyl)phenyl)-9H-purine-2,8-diamine]: the IC50 in assay [1] and in assay [2] was below 150 nM in each case.
For `CC1(Nc2ncc3nc(Nc4ccc(C(F)(F)F)cc4)n([C@H]4CC[C@@H](CN)CC4)c3n2)CCOCC1` [A-31, 9-((1s,4s)-4-(aminomethyl)cyclohexyl)-N2-(4-methyltetrahydro-2H-pyran-4-yl)-N8-(4-(trifluoromethyl)phenyl)-9H-purine-2,8-diamine], the values for the IC50 in assay [1] and in assay [2] were 150 to 350 nM and below 150 nM, respectively.
For `CC1(Nc2ncc3nc(Nc4cccc(Cl)c4)n(-c4ccc(CN)cc4)c3n2)CCOCC1` [A-32, 9-(4-(aminomethyl)phenyl)-N8-(3-chlorophenyl)-N2-(4-methyltetrahydro-2H-pyran-4-yl)-9H-purine-2,8-diamine], in that order: 150 to 350 nM and below 150 nM.
The matching figures for `CC1(Nc2ncc3nc(Nc4cncc(Cl)c4)n([C@H]4CC[C@@H](CN)CC4)c3n2)CCOCC1` [A-33, 9-((1s,4s)-4-(aminomethyl)cyclohexyl)-N8-(5-chloropyridin-3-yl)-N2-(4-methyltetrahydro-2H-pyran-4-yl)-9H-purine-2,8-diamine]: 150 to 350 nM and below 150 nM.
Consider `CC1(Nc2ncc3nc(Nc4cccc(Cl)c4)n(C4CC(N)C4)c3n2)CCOCC1` (centres unmarked) [A-35, 9-(3-aminocyclobutyl)-N8-(3-chlorophenyl)-N2-(4-methyltetrahydro-2H-pyran-4-yl)-9H-purine-2,8-diamine], for which the IC50 in assay [1] and in assay [2] was below 150 nM in each case.
Regarding `CC(C)(C)Nc1ncc2nc(Nc3ccc(Cl)c(Cl)c3)n(C3CC(N)C3)c2n1` (centres unmarked) [A-39, 9-(3-aminocyclobutyl)-N2-tert-butyl-N8-(3,4-dichlorophenyl)-9H-purine-2,8-diamine], the IC50 fell in the range of 350 to 500 nM in assay [1] and 150 to 350 nM in assay [2].
In the case of `CC1(Nc2ncc3nc(Nc4cccc(Cl)c4)n([C@H]4CC[C@@H](CN5CCOCC5)CC4)c3n2)CCOCC1` [A-41, N8-(3-chlorophenyl)-N2-(4-methyltetrahydro-2H-pyran-4-yl)-9-((1s,4s)-4-(morpholinomethyl)cyclohexyl)-9H-purine-2,8-diamine], the values for the IC50 in assay [1] and in assay [2] were below 150 nM and 350 to 500 nM, respectively.
Consider `CC1(Nc2ncc3nc(Nc4cc(C(F)(F)F)ccc4F)n([C@H]4CC[C@@H](CN)CC4)c3n2)CCOCC1` [A-42, 9-((1s,4s)-4-(aminomethyl)cyclohexyl)-N8-(2-fluoro-5-(trifluoromethyl)phenyl)-N2-(4-methyltetrahydro-2H-pyran-4-yl)-9H-purine-2,8-diamine], for which the IC50 in assay [1] and in assay [2] was below 150 nM throughout.
As to `CC1(Nc2ncc3nc(Nc4cccc(C(F)(F)F)n4)n([C@H]4CC[C@@H](CN)CC4)c3n2)CCOCC1` [A-45, 9-((1s,4s)-4-(aminomethyl)cyclohexyl)-N2-(4-methyltetrahydro-2H-pyran-4-yl)-N8-(6-(trifluoromethyl)pyridin-2-yl)-9H-purine-2,8-diamine], the IC50 in assay [1] and in assay [2] was 150 to 350 nM throughout.
Consider `CC(C)(C)Nc1ncc2nc(Nc3cc(Cl)cc(Cl)c3)n([C@H]3CC[C@@H](CN)CC3)c2n1` [A-48, 9-((1s,4s)-4-(aminomethyl)cyclohexyl)-N2-tert-butyl-N8-(3,5-dichlorophenyl)-9H-purine-2,8-diamine], for which the IC50 is 150 to 350 nM in assay [1] and 350 to 500 nM in assay [2].
The matching figures for `CC1(Nc2ncc3nc(Nc4cccc(Cl)c4)n([C@H]4CC[C@@H](CN)CC4)c3n2)CC1` [A-51, 9-((1s,4s)-4-(aminomethyl)cyclohexyl)-N8-(3-chlorophenyl)-N2-(1-methylcyclopropyl)-9H-purine-2,8-diamine]: below 150 nM and below 150 nM.
Consider `CC(C)(C)Nc1ncc2nc(Nc3cccc(C#N)c3)n(C3CCC(N)CC3)c2n1` (centres unmarked) [A-52, 3-(9-((1r,4r)-4-aminocyclohexyl)-2-(tert-butylamino)-9H-purin-8-ylamino)benzonitrile], for which the IC50 is 350 to 500 nM in assay [1] and below 150 nM in assay [2].
With `CC(C)(C)Nc1ncc2nc(Nc3cc(Cl)cc(C(F)(F)F)c3)n(C3CCC(N)CC3)c2n1` (centres unmarked) [A-53, 9-((1r,4r)-4-aminocyclohexyl)-N2-tert-butyl-N8-(3-chloro-5-(trifluoromethyl)phenyl)-9H-purine-2,8-diamine], the IC50 in assay [1] and in assay [2] was 150 to 350 nM each time.
As to `CC(C)(CO)Nc1ncc2nc(Nc3cccc(Cl)c3)n(C3CCC(CN)CC3)c2n1` (centres unmarked) [A-54, 2-(9-((1s,4s)-4-(aminomethyl)cyclohexyl)-8-(3-chlorophenylamino)-9H-purin-2-ylamino)-2-methylpropan-1-ol], the IC50 in assay [1] was 150 to 350 nM; in assay [2], below 150 nM.
The matching figures for `CC1(Nc2ncc3nc(Nc4cc(Cl)cc(C(F)(F)F)c4)n(C4CCC(CN)CC4)c3n2)CCC1` (centres unmarked) [A-55, 9-((1s,4s)-4-(aminomethyl)cyclohexyl)-N8-(3-chloro-5-(trifluoromethyl)phenyl)-N2-(1-methylcyclobutyl)-9H-purine-2,8-diamine]: 150 to 350 nM and 350 to 500 nM.
For `CNC[C@H]1CC[C@@H](n2c(Nc3cccc(C(F)(F)F)c3)nc3cnc(NC4(C)CCOCC4)nc32)CC1` [A-58, 9-((1s,4s)-4-((methylamino)methyl)cyclohexyl)-N2-(4-methyltetrahydro-2H-pyran-4-yl)-N8-(3-(trifluoromethyl)phenyl)-9H-purine-2,8-diamine], in that order: below 150 nM and below 150 nM.
The matching figures for `CC1(Nc2ncc3nc(Nc4cc(C(F)(F)F)ccc4F)n(C4CCC(N)CC4)c3n2)CCOCC1` (centres unmarked) [A-59, 9-(4-aminocyclohexyl)-N8-(2-fluoro-5-(trifluoromethyl)phenyl)-N2-(4-methyltetrahydro-2H-pyran-4-yl)-9H-purine-2,8-diamine]: 150 to 350 nM and below 150 nM.
For `CN(C)CC1CCC(n2c(Nc3cccc(Cl)c3F)nc3cnc(NC(C)(C)C)nc32)CC1` (centres unmarked) [A-60, N2-tert-butyl-N8-(3-chloro-2-fluorophenyl)-9-((1s,4s)-4-((dimethylamino)methyl)cyclohexyl)-9H-purine-2,8-diamine], the IC50 in assay [1] and in assay [2] was below 150 nM each time.
For the compound `CC1(Nc2ncc3nc(Nc4cc(C(F)(F)F)ccc4F)n(C4CCC(CN)CC4)c3n2)CCC1` (centres unmarked) [A-61, 9-((1s,4s)-4-(aminomethyl)cyclohexyl)-N8-(2-fluoro-5-(trifluoromethyl)phenyl)-N2-(1-methylcyclobutyl)-9H-purine-2,8-diamine], the IC50 in assay [1] was 150 to 350 nM; in assay [2], below 150 nM.
Take `NC[C@H]1CC[C@@H](n2c(Nc3cccc(Cl)c3)nc3cnc(NC4CCOCC4)nc32)CC1` [B-1, 9-((1s,4s)-4-(aminomethyl)cyclohexyl)-N8-(3-chlorophenyl)-N2-(tetrahydro-2H-pyran-4-yl)-9H-purine-2,8-diamine]: the results for the IC50 in assay [1] and in assay [2] were 150 to 350 nM and 350 to 500 nM, respectively.
Consider `NC1CCC(n2c(Nc3cccc(Cl)c3)nc3cnc(NC4CC4)nc32)CC1` (centres unmarked) [B-2, 9-((1r,4r)-4-aminocyclohexyl)-N8-(3-chlorophenyl)-N2-cyclopropyl-9H-purine-2,8-diamine], for which the IC50 in assay [1] was 350 to 500 nM; in assay [2], below 150 nM.
The matching figures for `NC1CCC(n2c(Nc3cccc(Cl)c3)nc3cnc(NCC4CC4)nc32)CC1` (centres unmarked) [B-3, 9-((1r,4r)-4-aminocyclohexyl)-N8-(3-chlorophenyl)-N2-(cyclopropylmethyl)-9H-purine-2,8-diamine]: 350 to 500 nM and 350 to 500 nM.
